Laboratory results from patent publication US9023789B2, “Amylin analogs and pharmaceutical compositions thereof” (Novo Nordisk A/S, priority 2012, dated 2015).
Like-named read-outs stand apart in the source and are kept apart here. Numbered stars: 1 amine (or outer) side, 2 acyl side, 3 side chain; on linkers, the order of the positions; unused ones are H or OH. Bridge positions count the residues as written; N and C are the ends. Side chains are listed from the residue outwards. Peptide text beside a SMILES is read from it. * marks the point of attachment. C20 diacid = O=C(O)CCCCCCCCCCCCCCCCCCC(=O)*; γGlu = O=C(O)[C@H](CCC(=O)[*:2])N[*:1]; AEEA = NCCOCCOCC(=O)O

What was measured:
[1] = ASSAY (IV) determination of solubility; assay type: physicochemical
Summary of the method: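 Solubility measured by UPLC of supernatant after centrifugation, following 18 h at room temperature. Peptide ([…] in water) was diluted 1:1 into 100 mM glycylglycine (pH 3.0, 4.0, 5.0) or bistrispropane (pH 6.0-8.0).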

rat calcitonin receptor = target: T1, rat calcitonin receptor (Rattus norvegicus, UniProt P32214); assay: ASSAY (VIII) binding to the rat calcitonin receptor; details: Table 7, read-out: rCTR bind IC50
T1 construct: expressed in transfected cells; host or cells: BHK tk'ts 13 (transient, FuGENE 6), membranes
T1 sequence (P32214 25-479 isoform P32214-2 limits assumed): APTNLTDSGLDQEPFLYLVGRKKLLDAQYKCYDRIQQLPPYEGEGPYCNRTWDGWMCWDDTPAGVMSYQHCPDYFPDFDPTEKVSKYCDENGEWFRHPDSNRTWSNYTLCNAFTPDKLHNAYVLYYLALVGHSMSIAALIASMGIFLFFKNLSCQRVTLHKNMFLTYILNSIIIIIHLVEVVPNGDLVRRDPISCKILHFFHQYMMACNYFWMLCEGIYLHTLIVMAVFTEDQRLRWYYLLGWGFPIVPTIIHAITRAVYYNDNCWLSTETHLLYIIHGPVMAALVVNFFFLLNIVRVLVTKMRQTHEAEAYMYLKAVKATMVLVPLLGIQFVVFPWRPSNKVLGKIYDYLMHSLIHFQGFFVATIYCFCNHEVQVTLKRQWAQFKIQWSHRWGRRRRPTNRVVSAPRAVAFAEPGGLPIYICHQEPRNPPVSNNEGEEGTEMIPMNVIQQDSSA
Summary of the method: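 BHK tk′ts 13 cells, transient rat calcitonin receptor transfection; DMEM + 10% FBS; harvest ~48 h post-transfection; membrane prep.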

[2] = bistrispropane buffer, pH 6.5, read-out: Solubility pH 6.5 Concentration
[3] = bistrispropane buffer, pH 7.5, read-out: Solubility pH 7.5 Concentration
[4] = bistrispropane buffer, pH 6.0, read-out: Solubility pH 6.0 Concentration
[5] = bistrispropane buffer, pH 7.0, read-out: Solubility pH 7.0 Concentration
[6] = bistrispropane buffer, pH 8.0, read-out: Solubility pH 8.0 Concentration
[7] = glycylglycine buffer, pH 3.0, read-out: Solubility pH 3.0 Concentration
[8] = glycylglycine buffer, pH 4.0, read-out: Solubility pH 4.0 Concentration
[9] = glycylglycine buffer, pH 5.0, read-out: Solubility pH 5.0 Concentration

Structure (SMILES) | solubility at 18 h [1, 2] [µM] | solubility at 18 h [1, 3] [µM] | solubility at 18 h [1, 4] [µM] | solubility at 18 h [1, 5] [µM] | solubility at 18 h [1, 6] [µM] | solubility at 18 h [1, 7] [µM] | solubility at 18 h [1, 8] [µM] | solubility at 18 h [1, 9] [µM] | IC50 (rat calcitonin receptor) [nM]
CC[C@H](C)[C@H](NC(=O)[C@H](C)NC(=O)CNC(=O)[C@H](Cc1ccccc1)NC(=O)[C@H](CC(N)=O)NC(=O)[C@@H]1CCCN1C(=O)[C@H](CO)NC(=O)[C@H](CO)NC(=O)[C@H](Cc1c[nH]cn1)NC(=O)[C@H](CCCNC(=N)N)NC(=O)[C@H](CC(C)C)NC(=O)[C@H](Cc1ccccc1)NC(=O)[C@H](CCC(=O)O)NC(=O)[C@H](C)NC(=O)[C@H](CC(C)C)NC(=O)[C@H](CCCNC(=N)N)NC(=O)[C@H](CCC(N)=O)NC(=O)[C@@H](NC(=O)[C@H](C)NC(=O)[C@@H]1CSSC[C@H](NC(=O)[C@@H](N)CCCCNC(=O)CC[C@H](NC(=O)CCCCCCCCCCCCCCCCCCC(=O)O)C(=O)O)C(=O)N[C@@H](CC(N)=O)C(=O)N[C@@H]([C@@H](C)O)C(=O)N[C@@H](C)C(=O)N[C@@H]([C@@H](C)O)C(=O)N1)[C@@H](C)O)C(=O)N1CCC[C@H]1C(=O)N[C@@H](CO)C(=O)N[C@@H](CO)C(=O)N[C@H](C(=O)N[C@@H](CC(N)=O)C(=O)N[C@H](C(=O)NCC(=O)N[C@@H](CO)C(=O)N[C@@H](CC(N)=O)C(=O)N[C@H](C(=O)N1CCC[C@H]1C(N)=O)[C@@H](C)O)C(C)C)[C@@H](C)O [Example 12] (H-K([γGlu-C20 diacid])CNTATCATQRLAEFLRHSSPNFGAIPSSTNVGSNTP-NH2; disulfide 2-7 (inferred); N-terminus assumed) | ≥ 200 | ≥ 200 | ≥ 200 | ≥ 200 | ≥ 200 | ≥ 200 | ≥ 200 | ≥ 200 | 2.71
CC[C@H](C)[C@H](NC(=O)[C@H](C)NC(=O)CNC(=O)[C@H](Cc1ccccc1)NC(=O)[C@H](CC(N)=O)NC(=O)[C@@H]1CCCN1C(=O)[C@H](CO)NC(=O)[C@H](CO)NC(=O)[C@H](Cc1c[nH]cn1)NC(=O)[C@H](CCCNC(=N)N)NC(=O)[C@H](CC(C)C)NC(=O)[C@H](Cc1ccccc1)NC(=O)[C@H](CCC(=O)O)NC(=O)[C@H](C)NC(=O)[C@H](CC(C)C)NC(=O)[C@H](CCCNC(=N)N)NC(=O)[C@H](CCC(N)=O)NC(=O)[C@@H](NC(=O)[C@H](C)NC(=O)[C@@H]1CSSC[C@H](NC(=O)[C@H](CCCCN)NC(=O)COCCOCCNC(=O)COCCOCCNC(=O)CC[C@H](NC(=O)CCCCCCCCCCCCCCCCCCC(=O)O)C(=O)O)C(=O)N[C@@H](CC(N)=O)C(=O)N[C@@H]([C@@H](C)O)C(=O)N[C@@H](C)C(=O)N[C@@H]([C@@H](C)O)C(=O)N1)[C@@H](C)O)C(=O)N1CCC[C@H]1C(=O)N[C@@H](CO)C(=O)N[C@@H](CO)C(=O)N[C@H](C(=O)N[C@@H](CC(N)=O)C(=O)N[C@H](C(=O)NCC(=O)N[C@@H](CO)C(=O)N[C@@H](CC(N)=O)C(=O)N[C@H](C(=O)N1CCC[C@H]1C(N)=O)[C@@H](C)O)C(C)C)[C@@H](C)O [Example 20] ({C20 diacid-γGlu-AEEA-AEEA}-KCNTATCATQRLAEFLRHSSPNFGAIPSSTNVGSNTP-NH2; disulfide 2-7) | ≥ 200 | ≥ 200 | ≥ 200 | ≥ 200 | ≥ 200 | ≥ 200 | ≥ 200 | ≥ 200 | –
CC[C@H](C)[C@H](NC(=O)[C@H](C)NC(=O)CNC(=O)[C@H](Cc1ccccc1)NC(=O)[C@H](CC(N)=O)NC(=O)[C@@H]1CCCN1C(=O)[C@H](CO)NC(=O)[C@H](CO)NC(=O)[C@H](Cc1c[nH]cn1)NC(=O)[C@H](CCCNC(=N)N)NC(=O)[C@H](CC(C)C)NC(=O)[C@H](Cc1ccccc1)NC(=O)[C@H](CCC(=O)O)NC(=O)[C@H](C)NC(=O)[C@H](CC(C)C)NC(=O)[C@H](CCCNC(=N)N)NC(=O)[C@H](CCC(N)=O)NC(=O)[C@@H](NC(=O)[C@H](C)NC(=O)[C@@H]1CSSC[C@H](NC(=O)[C@@H](N)CCCCNC(=O)CC[C@H](NC(=O)CCCCCCCCCCCCCCCCCCC(=O)O)C(=O)O)C(=O)N[C@@H](CC(N)=O)C(=O)N[C@@H]([C@@H](C)O)C(=O)N[C@@H](C)C(=O)N[C@@H]([C@@H](C)O)C(=O)N1)[C@@H](C)O)C(=O)N1CCC[C@H]1C(=O)N[C@@H](CO)C(=O)N[C@@H](CO)C(=O)N[C@H](C(=O)N[C@@H](CC(N)=O)C(=O)N[C@H](C(=O)NCC(=O)N1CCC[C@H]1C(=O)N[C@@H](CC(N)=O)C(=O)N[C@H](C(=O)N1CCC[C@H]1C(N)=O)[C@@H](C)O)C(C)C)[C@@H](C)O [Example 114] (H-K([γGlu-C20 diacid])CNTATCATQRLAEFLRHSSPNFGAIPSSTNVGPNTP-NH2; disulfide 2-7 (inferred); N-terminus assumed) | ≥ 200 | ≥ 200 | ≥ 200 | ≥ 200 | ≥ 200 | ≥ 200 | ≥ 200 | ≥ 200 | –
CC[C@H](C)[C@H](NC(=O)[C@H](C)NC(=O)CNC(=O)[C@H](Cc1ccccc1)NC(=O)[C@H](CC(N)=O)NC(=O)[C@@H]1CCCN1C(=O)[C@H](CO)NC(=O)[C@H](CO)NC(=O)[C@H](Cc1c[nH]cn1)NC(=O)[C@H](CCCNC(=N)N)NC(=O)[C@H](CC(C)C)NC(=O)[C@H](Cc1ccccc1)NC(=O)[C@H](Cc1c[nH]cn1)NC(=O)[C@H](C)NC(=O)[C@H](CC(C)C)NC(=O)[C@H](CCCNC(=N)N)NC(=O)[C@H](CCC(N)=O)NC(=O)[C@@H](NC(=O)[C@H](C)NC(=O)[C@@H]1CSSC[C@H](NC(=O)[C@@H](N)CCCCNC(=O)CC[C@H](NC(=O)CCCCCCCCCCCCCCCCCCC(=O)O)C(=O)O)C(=O)N[C@@H](CC(N)=O)C(=O)N[C@@H]([C@@H](C)O)C(=O)N[C@@H](C)C(=O)N[C@@H]([C@@H](C)O)C(=O)N1)[C@@H](C)O)C(=O)N1CCC[C@H]1C(=O)N[C@@H](CO)C(=O)N[C@@H](CO)C(=O)N[C@H](C(=O)N[C@@H](CC(N)=O)C(=O)N[C@H](C(=O)NCC(=O)N1CCC[C@H]1C(=O)N[C@@H](CC(N)=O)C(=O)N[C@H](C(=O)N1CCC[C@H]1C(N)=O)[C@@H](C)O)C(C)C)[C@@H](C)O [Example 115] (H-K([γGlu-C20 diacid])CNTATCATQRLAHFLRHSSPNFGAIPSSTNVGPNTP-NH2; disulfide 2-7 (inferred); N-terminus assumed) | ≥ 200 | ≥ 200 | ≥ 200 | ≥ 200 | ≥ 200 | ≥ 200 | ≥ 200 | ≥ 200 | –
CC[C@H](C)[C@H](NC(=O)[C@H](C)NC(=O)CNC(=O)[C@H](Cc1ccccc1)NC(=O)[C@H](CC(N)=O)NC(=O)[C@@H]1CCCN1C(=O)[C@H](CO)NC(=O)[C@H](CO)NC(=O)[C@H](Cc1c[nH]cn1)NC(=O)[C@H](CCCNC(=N)N)NC(=O)[C@H](CC(C)C)NC(=O)[C@H](Cc1ccccc1)NC(=O)[C@H](CCC(=O)O)NC(=O)[C@H](C)NC(=O)[C@H](CC(C)C)NC(=O)[C@H](CCCNC(=N)N)NC(=O)[C@H](CCC(N)=O)NC(=O)[C@@H](NC(=O)[C@H](C)NC(=O)[C@@H]1CSSC[C@H](NC(=O)[C@@H](N)CCCCNC(=O)CC[C@H](NC(=O)CC[C@H](NC(=O)CCCCCCCCCCCCCCCCCCC(=O)O)C(=O)O)C(=O)O)C(=O)N[C@@H](CC(N)=O)C(=O)N[C@@H]([C@@H](C)O)C(=O)N[C@@H](C)C(=O)N[C@@H]([C@@H](C)O)C(=O)N1)[C@@H](C)O)C(=O)N1CCC[C@H]1C(=O)N[C@@H](CO)C(=O)N[C@@H](CO)C(=O)N[C@H](C(=O)N[C@@H](CC(N)=O)C(=O)N[C@H](C(=O)NCC(=O)N1CCC[C@H]1C(=O)N[C@@H](CC(N)=O)C(=O)N[C@H](C(=O)N[C@@H](Cc1ccccc1)C(N)=O)[C@@H](C)O)C(C)C)[C@@H](C)O [Example 127] (H-K([γGlu-γGlu-C20 diacid])CNTATCATQRLAEFLRHSSPNFGAIPSSTNVGPNTF-NH2; disulfide 2-7 (inferred)) | – | – | – | – | – | – | – | – | 23.4
